Measured values as given in the NIST ThermoML archive (doi:10.1016/j.jct.2018.09.027).

Settings: Crystal; for vapor or sublimation pressure: Calculated from knudsen effusion weight loss

O=C(O)c1cc(O)c(O)c(O)c1 [3,4,5-trihydroxybenzoic acid]
Settings | Normal melting temperature [°C] | vapor or sublimation pressure [kPa]
432.88 K | – | 9.61e-05
434.44 K | – | 0.0001197
436.46 K | – | 0.0001349
438.62 K | – | 0.0001688
440.5 K | – | 0.0001779
442.58 K | – | 0.0002341
444.57 K | – | 0.000257
446.54 K | – | 0.000313
448.7 K | – | 0.0003927
450.78 K | – | 0.0004674
452.6 K | – | 0.0005635
454.63 K | – | 0.0006284
456.47 K | – | 0.0008057
458.78 K | – | 0.0009376
DTA | 263.5 | –
